Results taken from publication PMC3225368, “A Conformational Switch in the Active Site of BT_2972, a Methyltransferase from an Antibiotic Resistant Pathogen B. thetaiotaomicron” (PLoS ONE, 2011).
Marks after values point to notes of the source that are not given here.

Target: T1, BT_2972 (Bacteroides thetaiotaomicron, UniProt Q8A3I2)
T1 construct: 257 amino acids with noncleavable N-terminal (His)6 tag; pGS21a, E. coli BL21 (DE3); monomer in solution; first 12 residues disordered
Test: isothermal titration calorimetry
Format: binding
Conditions: 20 mM Tris-HCl pH 8.0, 200 mM NaCl, 24 °C; single-site model

T1 sequence (Q8A3I2 entry or part of it, change not shown): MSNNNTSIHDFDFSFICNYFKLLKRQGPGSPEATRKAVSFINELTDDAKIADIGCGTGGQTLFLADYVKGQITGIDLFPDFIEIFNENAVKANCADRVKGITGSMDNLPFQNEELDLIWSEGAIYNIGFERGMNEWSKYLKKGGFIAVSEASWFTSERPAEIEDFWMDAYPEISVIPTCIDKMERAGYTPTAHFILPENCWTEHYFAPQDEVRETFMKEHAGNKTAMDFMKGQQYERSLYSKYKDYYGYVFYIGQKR

Row | Compound | Ka
1 | Nc1ncnc2c1ncn2[C@@H]1O[C@H](CSCC[C@H](N)C(=O)O)[C@@H](O)[C@H]1O [AdoHcy] | 3.498×10^5 (±0.66×10^5)
2 | C[S+](CC[C@H](N)C(=O)O)C[C@H]1O[C@@H](n2cnc3c(N)ncnc32)[C@H](O)[C@@H]1O (some centres unmarked) [AdoMet] | 0.395×10^5 (±0.0435×10^5)
